Assay results reported in ChEMBL document CHEMBL1201862, “PubChem BioAssay data set” (2004).
Blank lines part the entries; values can stand above or below the compound they belong to. The source made the active and inactive calls.

Key:
[1] = system: HEK293; experiment: cells; conditions: Homo sapiens
[2] = target: Phospholipase A2 (Homo sapiens, UniProt P04054); assay type: functional;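 also: confirmatory dose-response counterscreen on phospholipase A2, testing hits that came from an ultra-high-throughput screen for ATG4B inhibitors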
[3] = target: T1, Cysteine protease ATG4B (Homo sapiens, UniProt Q9Y4P1); assay type: functional;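 also: Fluorescence-based dose-response confirmation assay measuring inhibition of ATG4B activity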
T1 sequence (Q9Y4P1 whole entry): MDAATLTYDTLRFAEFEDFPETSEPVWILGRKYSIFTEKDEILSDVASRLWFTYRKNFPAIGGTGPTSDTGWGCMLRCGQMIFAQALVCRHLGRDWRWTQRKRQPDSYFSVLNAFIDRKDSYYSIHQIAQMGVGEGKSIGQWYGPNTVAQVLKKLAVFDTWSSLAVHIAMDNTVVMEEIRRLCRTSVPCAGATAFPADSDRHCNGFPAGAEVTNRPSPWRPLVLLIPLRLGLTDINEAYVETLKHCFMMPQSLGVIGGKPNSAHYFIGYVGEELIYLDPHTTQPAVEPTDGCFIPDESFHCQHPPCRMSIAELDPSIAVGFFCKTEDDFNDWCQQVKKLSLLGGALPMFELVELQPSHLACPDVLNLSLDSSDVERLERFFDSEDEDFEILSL

[4] = system: HEK293; experiment: cells; conditions: Homo sapiens; remark: listed apart in the source
[5] = target: Dual specificity tyrosine-phosphorylation-regulated kinase 1A (Rattus norvegicus, UniProt Q63470); assay type: biochemical, Homo sapiens
[6] = system: Escherichia coli; experiment: microbe, parasite or virus in culture
[7] = target: Glucose-6-phosphate 1-dehydrogenase (Homo sapiens, UniProt P11413); experiment: human G6PD enzyme inhibitors, dose response, selectivity assay for P. falciparum G6PD inhibitor project, biochemical, fluorescence (AID 504792); assay type: functional
[8] = target: T2, Zinc finger protein mex-5 (Caenorhabditis elegans, UniProt Q9XUB2); experiment: MEX-5/TCR-2 RNA interaction inhibitors, dose response, biochemical, C. elegans, fluorescence polarization (AID 1960)
T2 sequence (Q9XUB2 whole entry): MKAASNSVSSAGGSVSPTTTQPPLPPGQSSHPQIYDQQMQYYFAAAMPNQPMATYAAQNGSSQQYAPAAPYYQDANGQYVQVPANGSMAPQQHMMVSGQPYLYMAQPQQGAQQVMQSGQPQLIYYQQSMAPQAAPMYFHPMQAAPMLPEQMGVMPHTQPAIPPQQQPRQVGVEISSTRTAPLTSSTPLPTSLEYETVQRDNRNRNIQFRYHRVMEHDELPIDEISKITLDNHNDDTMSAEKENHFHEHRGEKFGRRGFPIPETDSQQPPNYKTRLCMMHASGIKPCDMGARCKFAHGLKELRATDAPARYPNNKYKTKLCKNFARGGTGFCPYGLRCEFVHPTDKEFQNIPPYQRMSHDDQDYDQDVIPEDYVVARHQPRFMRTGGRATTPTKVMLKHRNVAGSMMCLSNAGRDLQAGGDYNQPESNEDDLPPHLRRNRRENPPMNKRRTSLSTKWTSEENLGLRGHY

[9] = target: T3, RNA-binding protein pos-1 (Caenorhabditis elegans, UniProt G5EF15); experiment: inhibitors of POS-1/mex-3 RNA binding, dose response, biochemical, fluorescence polarization (AID 1964);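 also: purified POS-1 fused to maltose binding protein made in E. coli; potency of compounds blocking POS-1 binding to fluorescent RNA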
T3 sequence (G5EF15 whole entry): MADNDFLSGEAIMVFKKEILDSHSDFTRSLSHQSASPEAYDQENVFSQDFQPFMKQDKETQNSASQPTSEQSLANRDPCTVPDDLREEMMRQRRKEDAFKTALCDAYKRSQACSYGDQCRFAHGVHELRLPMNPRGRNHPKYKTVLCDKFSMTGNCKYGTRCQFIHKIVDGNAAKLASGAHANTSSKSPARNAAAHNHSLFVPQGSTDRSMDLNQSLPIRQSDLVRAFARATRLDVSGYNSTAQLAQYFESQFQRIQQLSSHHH

[10] = target: Induced myeloid leukemia cell differentiation protein Mcl-1 (Homo sapiens, UniProt Q07820); assay type: functional
Chain of Induced myeloid leukemia cell differentiation protein Mcl-1 (Q07820 whole entry): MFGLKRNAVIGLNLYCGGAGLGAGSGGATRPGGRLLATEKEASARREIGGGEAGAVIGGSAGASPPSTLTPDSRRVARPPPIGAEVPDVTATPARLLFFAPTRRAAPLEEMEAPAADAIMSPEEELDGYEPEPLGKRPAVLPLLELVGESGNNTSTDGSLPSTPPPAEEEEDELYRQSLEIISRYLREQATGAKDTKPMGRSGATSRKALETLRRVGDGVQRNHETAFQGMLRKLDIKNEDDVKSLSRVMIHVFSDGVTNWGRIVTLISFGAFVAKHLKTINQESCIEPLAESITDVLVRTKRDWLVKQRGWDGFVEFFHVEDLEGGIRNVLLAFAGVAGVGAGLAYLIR

Chain of Glucose-6-phosphate 1-dehydrogenase (P11413 whole entry): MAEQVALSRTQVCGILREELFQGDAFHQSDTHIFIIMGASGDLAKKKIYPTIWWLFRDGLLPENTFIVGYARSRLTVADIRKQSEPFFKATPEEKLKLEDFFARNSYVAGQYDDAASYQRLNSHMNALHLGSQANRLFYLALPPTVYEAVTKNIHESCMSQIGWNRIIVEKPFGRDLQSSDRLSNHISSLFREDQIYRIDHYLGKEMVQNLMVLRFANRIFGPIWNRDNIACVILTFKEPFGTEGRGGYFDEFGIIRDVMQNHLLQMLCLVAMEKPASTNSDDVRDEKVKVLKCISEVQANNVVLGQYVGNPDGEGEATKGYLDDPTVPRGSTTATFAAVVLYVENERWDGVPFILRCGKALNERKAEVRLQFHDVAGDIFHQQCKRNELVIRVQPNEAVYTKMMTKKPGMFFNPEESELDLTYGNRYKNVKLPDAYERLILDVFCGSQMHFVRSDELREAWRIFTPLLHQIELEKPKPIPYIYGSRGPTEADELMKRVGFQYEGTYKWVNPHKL
Chain of Phospholipase A2 (P04054 whole entry): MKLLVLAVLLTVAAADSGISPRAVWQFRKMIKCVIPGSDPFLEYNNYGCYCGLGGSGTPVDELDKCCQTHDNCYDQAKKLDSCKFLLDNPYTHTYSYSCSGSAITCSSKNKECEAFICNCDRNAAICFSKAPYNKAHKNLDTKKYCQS

Compound: CCn1c(SCc2ccccc2Cl)nc2nc3c(cc2c1=O)CCCC3
EC50 [1]: > 59.6 µM (inactive)
IC50 [2]: 4.98 µM (active)
IC50 [3]: 12.5 µM (active)
EC50 [4]: > 59.6 µM (inactive)

AC50 [5]: 15.5 µM (active)
Compound: Cn1c(C(=O)NC2CC2)cc2c(=O)n(C)c3ccccc3c21

Compound: COc1ccc(S(=O)(=O)NCc2ccco2)c2ccccc12
AC50 [6]: 28.5 µM (active)

AC50 [5]: 3.12 µM (active)
Compound: Oc1ccc(-c2nc3ccccc3nc2-c2ccc(O)cc2O)c(O)c1

Compound: Cc1ccccc1C(=O)N1CCC(C(=O)Nc2ccccc2Cl)CC1
AC50 [6]: 27.8 µM (active)

Compound: COc1cc(O)c(C(=O)O)c(-c2cc(O)c(O)cc2C)c1 [ALTENUSIN]
IC50 [7]: 31 µM (inactive)
EC50 [8]: > 300 µM (inconclusive)
EC50 [9]: 31 µM (active)
IC50 [10]: 4.15 µM (active)
